Results taken from US10588935B2, “FC receptor (FcRn) binding peptides and uses thereof” (THE BRIGHAM AND WOMEN'S HOSPITAL, INC., priority 2013, dated 2020).
Several values for one entry are separate records, joined by “and”; a condition that tells them apart may be missing. Identical values can stand only once. Like-named read-outs stand apart in the source and are kept apart here. Bridge positions count the residues as written; N and C are the ends. Peptide text beside a SMILES is read from it.

Molecular target: T1, soluble human FcRn (Homo sapiens, UniProt P55899)
T1 construct: Soluble human FcRn was expressed and purified by Biogen-Idec as previously described (29)
T1 sequence (P55899 24-297 limits assumed): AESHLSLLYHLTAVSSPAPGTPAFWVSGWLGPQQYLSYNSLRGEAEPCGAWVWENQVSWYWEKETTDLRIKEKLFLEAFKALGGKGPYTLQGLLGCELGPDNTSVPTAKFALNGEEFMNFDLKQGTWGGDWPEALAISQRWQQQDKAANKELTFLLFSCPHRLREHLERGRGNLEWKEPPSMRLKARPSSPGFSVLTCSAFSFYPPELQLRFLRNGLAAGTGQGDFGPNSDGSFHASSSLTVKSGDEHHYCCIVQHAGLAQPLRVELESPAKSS
T1 sequence (P61769 21-119 partner): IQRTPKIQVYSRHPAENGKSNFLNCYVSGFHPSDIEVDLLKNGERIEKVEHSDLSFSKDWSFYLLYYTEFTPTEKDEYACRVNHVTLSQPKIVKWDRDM
Test: SPR (Biacore) affinity of peptides for immobilized soluble human FcRn
Type: binding
Conditions: Table 2
Description: SPR analyses were conducted using a Biacore 3000 or T100 instrument. Research-grade CM5 sensor chips and all coupling reagents for immobilization were purchased from Biacore. All proteins were cross-linked to the dextran surface of a CM5 sensor chip by standard amine coupling chemistry as recommended by Biacore. […] Binding experiments were performed at pH 6.0 or 7.4 using 50 mM phosphate, 100 mM sodium chloride and 0.01% surfactant P20. […] Bound albumin protein was then allowed to dissociate from the chip for 5 minutes with running buffer. Any remaining albumin was removed from the chip with a 60 second injection (2 cycles) of pH 8.0 Tris-HCl regeneration buffer (1 M Tris pH 8.0) at 25 μL/min flow rate. The binding responses recorded near the end of the association phase were plotted as a function of concentration. Equilibrium dissociation constants (KD), were derived from sensorgrams using the 1:1 binding model of BIAevaluation software 4.1.

[1] = pH 6, immobilized shFcRn, data fit steady state or 2 site, read-out: Kd, pH 6** Biacore
[2] = pH 7.4, data only 100 uM, therefore Kd may be higher, read-out: Kd, pH 7.4 Biacore

CSCC[C@@H]1NC(=O)[C@H](CCC(=O)O)NC(=O)[C@H](CCC(=O)O)NC(=O)[C@H](CC(=O)O)NC(=O)[C@H](Cc2c[nH]c3ccccc23)NC(=O)[C@H](Cc2c[nH]c3ccccc23)NC(=O)[C@@H](NC(=O)[C@H](CCCCN)NC(=O)[C@H](CCSC)NC(=O)[C@@H](NC(=O)CNC(=O)[C@H](C)NC(C)=O)C(C)C)CSSC[C@@H](C(=O)N[C@@H](CCCNC(=N)N)C(=O)N[C@@H](C)C(=O)N[C@@H](Cc2ccccc2)C(=O)NCC(=O)N[C@H](C(=O)NCC(=O)NCC(=O)NCC(=O)N[C@@H](CCCCN)C(N)=O)[C@@H](C)O)NC(=O)[C@H](CC(C)C)NC1=O [SYN531] (Ac-AGVMKCWWDEEMLCRAFGTGGGK-NH2; disulfide 6-14 (inferred))
Kd Ratio 7.4/6.0: 99 | Kd [1]: 450 nM and 300 nM

CSCC[C@H](NC(=O)[C@H](C)NC(C)=O)C(=O)N[C@H](C(=O)N[C@H]1CSSC[C@@H](C(=O)N[C@@H](CCC(=O)O)C(=O)N[C@@H](Cc2ccc(O)cc2)C(=O)N[C@H](C(N)=O)C(C)C)NC(=O)[C@H](CO)NC(=O)[C@H](Cc2ccccc2)NC(=O)CNC(=O)[C@H](CC(=O)O)NC(=O)[C@H](CC(=O)O)NC(=O)[C@H](Cc2c[nH]c3ccccc23)NC(=O)[C@H](CCCCN)NC1=O)[C@@H](C)O [SYN1144] (Ac-AMTCKWDDGFSCEYV-NH2; disulfide 4-12 (inferred))
Kd Ratio 7.4/6.0: 23.3

CSCC[C@H](NC(=O)[C@H](Cc1ccc(O)cc1)NC(C)=O)C(=O)N[C@@H](C)C(=O)N[C@H]1CSSC[C@@H](C(=O)N[C@@H](CCC(=O)O)C(=O)N[C@@H](Cc2ccc(O)cc2)C(=O)N[C@H](C(N)=O)C(C)C)NC(=O)[C@H](CO)NC(=O)[C@H](Cc2ccccc2)NC(=O)CNC(=O)[C@H](CC(=O)O)NC(=O)[C@H](CC(=O)O)NC(=O)[C@H](Cc2c[nH]c3ccccc23)NC(=O)[C@H](CCCCN)NC1=O [SYN1146] (Ac-YMACKWDDGFSCEYV-NH2; disulfide 4-12 (inferred))
Kd Ratio 7.4/6.0: 34.4 | Kd [2]: 8600 nM

CSCC[C@H](NC(=O)[C@H](Cc1ccc(O)cc1)NC(C)=O)C(=O)N[C@H](C(=O)N[C@H]1CSSC[C@@H](C(=O)N[C@@H](CCC(=O)O)C(=O)N[C@@H](Cc2ccc(O)cc2)C(=O)N[C@H](C(N)=O)C(C)C)NC(=O)[C@H](CO)NC(=O)[C@H](Cc2ccccc2)NC(=O)CNC(=O)[C@H](CC(=O)O)NC(=O)[C@H](CC(=O)O)NC(=O)[C@H](Cc2c[nH]c3ccccc23)NC(=O)[C@H](C)NC1=O)[C@@H](C)O [SYN1147] (Ac-YMTCAWDDGFSCEYV-NH2; disulfide 4-12 (inferred))
Kd Ratio 7.4/6.0: 56

CSCC[C@H](NC(=O)[C@H](Cc1ccc(O)cc1)NC(C)=O)C(=O)N[C@H](C(=O)N[C@H]1CSSC[C@@H](C(=O)N[C@@H](CCC(=O)O)C(=O)N[C@@H](Cc2ccc(O)cc2)C(=O)N[C@H](C(N)=O)C(C)C)NC(=O)[C@H](CO)NC(=O)[C@H](Cc2ccccc2)NC(=O)CNC(=O)[C@H](CC(=O)O)NC(=O)[C@H](C)NC(=O)[C@H](Cc2c[nH]c3ccccc23)NC(=O)[C@H](CCCCN)NC1=O)[C@@H](C)O [SYN1149] (Ac-YMTCKWADGFSCEYV-NH2; disulfide 4-12 (inferred))
Kd Ratio 7.4/6.0: 7.8 | Kd [2]: 12000 nM

CSCC[C@H](NC(=O)[C@H](Cc1ccc(O)cc1)NC(C)=O)C(=O)N[C@H](C(=O)N[C@H]1CSSC[C@@H](C(=O)N[C@@H](CCC(=O)O)C(=O)N[C@@H](Cc2ccc(O)cc2)C(=O)N[C@H](C(N)=O)C(C)C)NC(=O)[C@H](CO)NC(=O)[C@H](Cc2ccccc2)NC(=O)CNC(=O)[C@H](C)NC(=O)[C@H](CC(=O)O)NC(=O)[C@H](Cc2c[nH]c3ccccc23)NC(=O)[C@H](CCCCN)NC1=O)[C@@H](C)O [SYN1150] (Ac-YMTCKWDAGFSCEYV-NH2; disulfide 4-12 (inferred))
Kd Ratio 7.4/6.0: 2.2

CSCC[C@H](NC(=O)[C@H](Cc1ccc(O)cc1)NC(C)=O)C(=O)N[C@H](C(=O)N[C@H]1CSSC[C@@H](C(=O)N[C@@H](CCC(=O)O)C(=O)N[C@@H](Cc2ccc(O)cc2)C(=O)N[C@H](C(N)=O)C(C)C)NC(=O)[C@H](CO)NC(=O)[C@H](Cc2ccccc2)NC(=O)[C@H](C)NC(=O)[C@H](CC(=O)O)NC(=O)[C@H](CC(=O)O)NC(=O)[C@H](Cc2c[nH]c3ccccc23)NC(=O)[C@H](CCCCN)NC1=O)[C@@H](C)O [SYN1151] (Ac-YMTCKWDDAFSCEYV-NH2; disulfide 4-12 (inferred))
Kd Ratio 7.4/6.0: 25 | Kd [1]: 1500 ± 220 nM

CSCC[C@H](NC(=O)[C@H](Cc1ccc(O)cc1)NC(C)=O)C(=O)N[C@H](C(=O)N[C@H]1CSSC[C@@H](C(=O)N[C@@H](C)C(=O)N[C@@H](Cc2ccc(O)cc2)C(=O)N[C@H](C(N)=O)C(C)C)NC(=O)[C@H](CO)NC(=O)[C@H](Cc2ccccc2)NC(=O)CNC(=O)[C@H](CC(=O)O)NC(=O)[C@H](CC(=O)O)NC(=O)[C@H](Cc2c[nH]c3ccccc23)NC(=O)[C@H](CCCCN)NC1=O)[C@@H](C)O [SYN1154] (Ac-YMTCKWDDGFSCAYV-NH2; disulfide 4-12 (inferred))
Kd Ratio 7.4/6.0: 20 | Kd [1]: 1500 nM and 460 nM

CSCC[C@H](NC(=O)[C@H](Cc1ccc(O)cc1)NC(C)=O)C(=O)N[C@H](C(=O)N[C@H]1CSSC[C@@H](C(=O)N[C@@H](CCC(=O)O)C(=O)N[C@@H](C)C(=O)N[C@H](C(N)=O)C(C)C)NC(=O)[C@H](CO)NC(=O)[C@H](Cc2ccccc2)NC(=O)CNC(=O)[C@H](CC(=O)O)NC(=O)[C@H](CC(=O)O)NC(=O)[C@H](Cc2c[nH]c3ccccc23)NC(=O)[C@H](CCCCN)NC1=O)[C@@H](C)O [SYN1155] (Ac-YMTCKWDDGFSCEAV-NH2; disulfide 4-12 (inferred))
Kd Ratio 7.4/6.0: 9.8 | Kd [2]: 17300 nM

CSCC[C@H](NC(=O)[C@H](Cc1ccc(O)cc1)NC(C)=O)C(=O)N[C@H](C(=O)N[C@H]1CSSC[C@@H](C(=O)N[C@@H](CCC(=O)O)C(=O)N[C@@H](Cc2ccc(O)cc2)C(=O)N[C@@H](C)C(N)=O)NC(=O)[C@H](CO)NC(=O)[C@H](Cc2ccccc2)NC(=O)CNC(=O)[C@H](CC(=O)O)NC(=O)[C@H](CC(=O)O)NC(=O)[C@H](Cc2c[nH]c3ccccc23)NC(=O)[C@H](CCCCN)NC1=O)[C@@H](C)O [SYN1156] (Ac-YMTCKWDDGFSCEYA-NH2; disulfide 4-12 (inferred))
Kd Ratio 7.4/6.0: 38 | Kd [2]: 22000 nM

CSCC[C@H](NC(=O)[C@H](Cc1ccc(O)cc1)NC(C)=O)C(=O)N[C@H](C(=O)N[C@H]1CSSC[C@@H](C(=O)N[C@@H](CCC(=O)O)C(=O)N[C@@H](Cc2ccc(O)cc2)C(N)=O)NC(=O)[C@H](CO)NC(=O)[C@H](Cc2ccccc2)NC(=O)CNC(=O)[C@H](CC(=O)O)NC(=O)[C@H](CC(=O)O)NC(=O)[C@H](Cc2c[nH]c3ccccc23)NC(=O)[C@H](CCCCN)NC1=O)[C@@H](C)O [SYN1164] (Ac-YMTCKWDDGFSCEY-NH2; disulfide 4-12 (inferred))
Kd [1]: 570 ± 20 nM

CSCC[C@H](NC(=O)[C@@H](NC(C)=O)C(C)C)C(=O)N[C@@H](Cc1c[nH]cn1)C(=O)N[C@H]1CSSC[C@@H](C(=O)N[C@@H](CC(=O)O)C(=O)N[C@@H](CCC(N)=O)C(=O)NCC(N)=O)NC(=O)[C@H](CCCCN)NC(=O)[C@H](Cc2ccccc2)NC(=O)[C@H](CCC(=O)O)NC(=O)[C@H](CCC(=O)O)NC(=O)[C@H](CC(=O)O)NC(=O)[C@H](Cc2c[nH]c3ccccc23)NC(=O)[C@H](Cc2ccccc2)NC1=O [SYN1197] (Ac-VMHCFWDEEFKCDQG-NH2; disulfide 4-12 (inferred))
Kd Ratio 7.4/6.0: 84

CSCC[C@H](NC(=O)[C@@H](NC(C)=O)C(C)C)C(=O)N[C@@H](Cc1c[nH]cn1)C(=O)N[C@H]1CSSC[C@@H](C(=O)N[C@@H](CC(=O)O)C(=O)N[C@@H](CCC(N)=O)C(=O)NCC(N)=O)NC(=O)[C@H](CCCCN)NC(=O)[C@H](Cc2ccccc2)NC(=O)[C@H](C)NC(=O)[C@H](CCC(=O)O)NC(=O)[C@H](CC(=O)O)NC(=O)[C@H](Cc2c[nH]c3ccccc23)NC(=O)[C@H](Cc2ccccc2)NC1=O [SYN1216] (Ac-VMHCFWDEAFKCDQG-NH2; disulfide 4-12 (inferred))
Kd Ratio 7.4/6.0: 52

CSCC[C@H](NC(=O)[C@@H](NC(C)=O)C(C)C)C(=O)N[C@@H](Cc1c[nH]cn1)C(=O)N[C@H]1CSSC[C@@H](C(=O)N[C@@H](CC(=O)O)C(=O)N[C@@H](CCC(N)=O)C(=O)NCC(N)=O)NC(=O)[C@H](CCCCN)NC(=O)[C@H](Cc2ccccc2)NC(=O)[C@H](CCC(=O)O)NC(=O)[C@H](CCC(=O)O)NC(=O)[C@H](CC(=O)O)NC(=O)[C@H](Cc2c[nH]c3ccccc23)NC(=O)[C@H](C)NC1=O [SYN1217] (Ac-VMHCAWDEEFKCDQG-NH2; disulfide 4-12)
Kd [1]: > 20000 nM | Kd, pH 7.4 Biacore (pH 7.4, data only 100 uM, therefore Kd may be higher): no bind

CSCC[C@H](NC(=O)[C@H](Cc1ccc(O)cc1)NC(C)=O)C(=O)N[C@@H](Cc1c[nH]cn1)C(=O)N[C@H]1CSSC[C@@H](C(=O)N[C@@H](CC(=O)O)C(=O)N[C@@H](CCC(N)=O)C(=O)NCC(N)=O)NC(=O)[C@H](CCCCN)NC(=O)[C@H](Cc2ccccc2)NC(=O)[C@H](CCC(=O)O)NC(=O)[C@H](CCC(=O)O)NC(=O)[C@H](CC(=O)O)NC(=O)[C@H](Cc2c[nH]c3ccccc23)NC(=O)[C@H](Cc2ccccc2)NC1=O [SYN1256] (Ac-YMHCFWDEEFKCDQG-NH2; disulfide 4-12 (inferred))
Kd Ratio 7.4/6.0: 69

CSCC[C@H](NC(=O)[C@@H](NC(C)=O)C(C)C)C(=O)N[C@@H](Cc1c[nH]cn1)C(=O)N[C@H]1CSSC[C@@H](C(=O)N[C@@H](CCC(=O)O)C(=O)N[C@@H](CCC(N)=O)C(=O)NCC(N)=O)NC(=O)[C@H](CCCCN)NC(=O)[C@H](Cc2ccccc2)NC(=O)[C@H](CCC(=O)O)NC(=O)[C@H](CCC(=O)O)NC(=O)[C@H](CC(=O)O)NC(=O)[C@H](Cc2c[nH]c3ccccc23)NC(=O)[C@H](Cc2ccccc2)NC1=O [SYN1258] (Ac-VMHCFWDEEFKCEQG-NH2; disulfide 4-12 (inferred))
Kd Ratio 7.4/6.0: 65
